Reference: US20130059866A1, “NOVEL PIPERIDINO-DIHYDROTHIENOPYRIMIDINE SULFOXIDES AND THEIR USE FOR TREATING COPD AND ASTHMA” (BOEHRINGER INGELHEIM INTERNATIONAL GMBH, priority 2011, published 2013)
pIC50: −log10 of the molar value.

What was measured:
PDE4B = biological target: T1, PDE4B (Homo sapiens, UniProt Q07343); assay: PDE4B Scintillation Proximity (SPA) Assay; assay type: biochemical; conditions: PDE4B active site fragment amino acids 152-484, [3H]cAMP, 30° C., one hour; read-out: Experimentally determined IC50-value for PDE4B inhibition
T1 construct: active site fragment comprising the amino acids 152-484
T1 sequence (Q07343 324-656): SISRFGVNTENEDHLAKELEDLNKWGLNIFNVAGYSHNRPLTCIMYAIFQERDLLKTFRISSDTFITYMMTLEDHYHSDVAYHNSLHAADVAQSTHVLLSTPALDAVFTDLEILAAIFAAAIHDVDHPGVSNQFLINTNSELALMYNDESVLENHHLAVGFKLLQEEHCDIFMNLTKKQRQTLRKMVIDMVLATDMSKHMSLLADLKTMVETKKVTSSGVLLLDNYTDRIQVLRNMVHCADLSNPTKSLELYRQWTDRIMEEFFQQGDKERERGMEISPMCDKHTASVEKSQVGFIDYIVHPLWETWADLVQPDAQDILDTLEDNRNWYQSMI
Excerpt: The IC50-values of the compounds of the invention (Example Compounds 1 and 2) and of the above-mentioned prior art compounds A to D with respect to their PDE4B-inhibiting ability have been determined with a Scintillation Proximity (SPA) Assay (GE Healthcare, No. TRKQ7090).
The Scintillation Proximity (SPA) Assay is based on the detection of the different affinities of the cyclic 3′-5′-adenosine monophosphate (cAMP, low affinity) and the linear 5′-adenosine monophosphate (AMP, high affinity) to yttrium-silicate-scintilator beads. The cAMP-specific phosphodiesterase (PDE) PDE4B cleaves the 3′-phosphodiester bond of the tritium-labelled-[^3H]cAMP to the [^3H]5′-AMP. This [^3H]5′-AMP associates with the scintillator beads because of their higher affinity and causes scintillations (light flashes) which can be measured in a Wallac Microbeta Scintillation Counter.
10 μl of a [^3H]cAMP-solution (0.05 μCi in H2O, 10-30 Ci/mmol) are added to 89 μl of a PDE4B-enzyme-solution (active site fragment comprising the amino acids 152-484; 0.15-0.18 ng) in assay buffer (50 mM Tris HCl pH 7.5; 8.3 mM MgCl2; 1.7 mM ethylene glycol tetraacetic acid (EGTA); 0.25 mg/ml bovine serum albumin (BSA)) and this mixture is incubated at 30° C. for one hour
a) without the compound to be tested (in the presence of 1 μl dimethylsulfoxide (DMSO), corresponding to 1% DMSO) and b) in the presence of the compound to be tested in a concentration of 125 μM, 25 μM, 5 μM, 1 μM, 200 nM, 40 nM, 8 nM, 1.6 nM, 0.32 nM, 0.064 nM, 0.0128 nM (dilution series in 5er-steps beginning from 125 μM until 0.0128 nM, in the presence of 1% DMSO).
After this incubation the reaction is stopped by the addition of 50 μl of bead-solution (500 mg beads/35 ml H2O, 18 mM zinc sulfate). In the following 45 minutes the beads have the opportunity to form a sediment. After that the scintillations are measured in the scintillation counter. If the tested compound is able to inhibit the enzymatic activity of the PDE4B-enzyme, less [^3H]AMP depending on the concentration of the tested compound is produced and less scintillations are measurable. […] The IC50-value stands for the compound concentration at which the PDE4B enzyme activity is inhibited to a half maximal value. Therefore the lower the IC50-value is the better is the PDE4B inhibition.

[1] = test system: LPS-induced neutrophil influx into bronchoalveolar lavage fluid of male Wistar rats; assay: Inhibition of LPS-induced neutrophil influx into bronchoalveolar lavage fluid (LPS-induced lung inflammation model); assay type: in vivo; conditions: ED50 found in efficacy studies in the rat
Description: The anti-inflammatory activity of Examples 1 and 2 and of Prior art compounds A and D was assessed in an in vivo LPS-induced lung inflammation model in rats.
As a measure of the pharmacological potency of the above mentioned compounds the half-maximal effective dose (ED50) in regard to the inhibition of lipopolysaccharide-induced (LPS-induced) neutrophil influx into the bronchoalveolar lavage fluid (BALF) was determined by assessing the dose response relationship. Bacterial endotoxins (lipopolysaccharides [LPS]) are components of the outer bacterial cell membrane which play an important role in the pathogenesis of infections with gram-negative bacteria. It is known that inhalation of such aerosolized LPS induces a dose-dependent increase in neutrophils to lung tissues and airspaces in rats which may be detected by analyzing the amount of neutrophils in the bronchoalveolar lavage fluid (BALF). […]
Determination of neutrophil content of the BALF was performed using an ADVIA 120 blood hemacytometer (Bayer Diagnostics). Neutrophil data were normalised (Positive Control (=LPS treatment alone)=100%, Negative Control (no LPS treatment, administration of “vehicle only”)=0%) and expressed as percent of LPS control. The ED50 was calculated using a nonlinear fit (with the Graph Pad Prism software and a sigmoidal dose response fit). […]

conscious rats [2] = assay: Gastric emptying in conscious rats (barium sulfate test meal); assay type: in vivo, rat
Description: (§1) In order to evaluate whether the compounds of the present invention lead to gastrointestinal side effects the compounds of the invention have been administered to rats 30 minutes before the rats were fed with a test meal comprising barium sulfate. After that it was tested whether gastric emptying and/or gastrointestinal transit in these rats was affected by the presence of these compounds.
The effects of the compounds Example 1 and Example 2 on gastric emptying and gastrointestinal transit in conscious rats has been investigated as described below. Wistar rats of both sexes weighing 130-160 g (ages: male 7 wk, female 8 wk) were used. The animals are obtained from an approved local distributor, a minimum of four days quarantine is required before use, during which time the animals are maintained under routine animal care procedures. Groups of up to 5 animals are housed in cages in a room with controlled temperature and humidity and a light/dark cycle with the lights on from 6 a.m. to 6 p.m. The animals have access to normal rodent chow and water ad libitum. The animals are transported to the laboratory on the day of experimentation. Gastric emptying as well as small intestinal propulsion are determined using a barium sulfate test meal.
Five rats Crl:WI(Han) of each sex (n=10) were used. The animals were deprived of food 17 h prior to the experiment but allowed free access to water. The drug under investigation (drug was suspended to the concentration of 10 ml/kg body weight in 0.5% Natrosol solution) or the negative control (vehicle alone was given 10 ml/kg body weight) was administered 30 min (p.o.) before the test meal at doses calculated to be 3-fold, 10-fold or 30-fold the ED50 found in efficacy studies in the rat.
The test meal (suspension of 7.5 g barium sulfate in 10 ml salt-free water) is given orally by gavage at a dose of 2 ml/100 g body weight. Thirty minutes after the administration of the test meal the animals were killed in deep isoflurane anaesthesia by cervical dislocation. The stomach and the intestine were then exposed by laparatomy and removed.
The removed stomach was weighed, then incised, the contents removed and the empty stomach is weighed again.
The gastric content was calculated from the weight difference between the filled and empty stomach and normalized to 100 g body weight. Thus, an increase in weight difference indicated an impaired gastric emptying, whereas a decrease in weight difference indicated an enhanced gastric emptying.
Data are expressed as mean±standard deviation (SD). For each dose, comparisons were performed using an analysis of variance (ANOVA) and a post hoc Dunnett test to compare the various groups to the controls when the ANOVA was significant. p<0.05 was considered significant.

conscious rats [3] = assay: Gastrointestinal (intestinal) transit in conscious rats (barium sulfate test meal); assay type: in vivo, rat; conditions: all tested doses up to the 30-fold ED50 dose p.o.
Description: as §1
The effects of the compounds Example 1 and Example 2 on gastric emptying and gastrointestinal transit in conscious rats has been investigated as described below. Wistar rats of both sexes weighing 130-160 g (ages: male 7 wk, female 8 wk) were used. […] Gastric emptying as well as small intestinal propulsion are determined using a barium sulfate test meal. […]
The length of gut traversed with barium sulfate in relation to the whole length of the gut is determined by direct measurements using a ruler.
The length of gut traversed with barium sulphate (as judged by visual inspection) in relation to the whole length of the gut (from the pylorus to the rectum) is determined by direct measurements using a ruler.
Intestinal transit is calculated as the percentage movement of barium sulphate in the intestine in relation to the whole length of the gut. […]
Data are expressed as mean±standard deviation (SD). […]

SMILES	pIC50 (PDE4B)	intestinal transit vs negative control (conscious rats [3])	ED50 as restated in the dose table of the gastrointestinal study [1]	also measured
[O-][S+]1CCc2nc(N3CCC(c4ncc(Cl)cn4)CC3)nc(NC3(CO)CCC3)c21 (single isomer, unassigned) [Example 2]	8.14	no relevant differences	(ED50 = 0.1 mg/kg BW	gastric emptying vs negative control (conscious rats [2]; all tested doses (3-, 10-, 30-fold ED50) p.o.): no relevant differences
[O-][S+]1CCc2nc(N3CCC(c4c[nH]cn4)CC3)nc(NC3(CO)CC3)c21 (centres unmarked) [Prior art compound B]	7.18			
[O-][S+]1CCc2nc(N3CCC(c4ccncc4)CC3)nc(NC3(CO)CC3)c21 (centres unmarked) [Prior art compound C]	7.36			

Now from value to compound, other results behind:

pIC50 (PDE4B)	intestinal transit vs negative control (conscious rats [3])	SMILES	ED50 as restated in the dose table of the gastrointestinal study [1]	also measured
8.37	no significant differences	[O-][S+]1CCc2nc(N3CCC(c4ccc(Cl)cc4)CC3)nc(NC3(CO)CCC3)c21 (single isomer, unassigned) [Example 1]	(ED50 = 0.31 mg/kg BW	gastric emptying vs negative control (conscious rats [2]; 3-fold ED50 dose p.o., 30 min before test meal): no relevant differences; gastric emptying vs negative control (conscious rats [2]; 10-fold ED50 dose p.o., 30 min before test meal): no relevant differences; gastric emptying vs negative control (weight difference per body weight) (conscious rats [2]; 30-fold ED50 dose p.o., 30 min before test meal): only a very moderate enhancement
8.48		[O-][S+]1CCc2nc(N3CCC(c4ccc(Cl)cc4)CC3)nc(NC3(CO)CC3)c21 (centres unmarked) [Prior art compound A]		
8.14		[O-][S+]1CCc2nc(N3CCC(c4cccc(Cl)c4)CC3)nc(NC3(CO)CC3)c21 (centres unmarked) [Prior art compound D]		
